Results published in US11730705B2, “Small molecule CMKLR1 antagonists in inflammatory disease” (The Board of Trustees of the Leland Stanford Junior …, priority 2019, dated 2023).
Where two headings read alike, the source gives them in different places.

Experiments:
CMKLR1 = target: T1, CMKLR1 (Homo sapiens, UniProt Q99788); assay: β-arrestin recruitment assay (chemerin-mediated β-arrestin2 association with CMKLR1); assay type: cell-based
T1 construct: host or cells: CHO-K1 (PathHunter)
T1 sequence (Q99788 1-373): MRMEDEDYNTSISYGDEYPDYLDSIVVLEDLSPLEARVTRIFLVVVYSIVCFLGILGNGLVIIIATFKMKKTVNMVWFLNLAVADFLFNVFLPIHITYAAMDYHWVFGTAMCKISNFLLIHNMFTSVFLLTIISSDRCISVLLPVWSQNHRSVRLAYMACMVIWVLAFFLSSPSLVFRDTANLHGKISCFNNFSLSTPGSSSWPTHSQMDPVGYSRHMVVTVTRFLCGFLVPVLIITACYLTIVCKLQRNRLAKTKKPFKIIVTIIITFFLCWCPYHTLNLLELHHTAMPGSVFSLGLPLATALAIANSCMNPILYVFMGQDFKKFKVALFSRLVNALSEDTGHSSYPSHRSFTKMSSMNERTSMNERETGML
Protocol: (§1) FIG. 15A-15D. […] IC50 values were determined based on 6-point dose-response curves for each compound. (FIG. 15A) α-NETA. […] (FIG. 15A-15C) mean±SEM, n=3-18 independent experiments. […] 0.2 ml each compound (in 10% captisol) or vehicle control was administered by oral gavage beginning one day prior to psoriasis induction. Back skin thickness was measured daily and normalized to day 0. mean±SEM, n=10 mice for vehicle and α-NETA groups pooled from two independent trials; n=3 mice for (27) and (6) from one trial.
Cell culture. […] DiscoverX PathHunter® CHO-K1 CMKLR1 β-Arrestin Cells were grown in RPMI lacking phenol red (Gibco, Life Technologies), supplemented with L-glutamine, penicillin-streptomycin, sodium pyruvate, non-essential amino acid, BCS, hygromycin, and G418-sulfate.
β-arrestin recruitment assay. CMKLR1-CHO-β-Arrestin cells were seeded in 96 well plates at 1×10^5 cell/ml-100 ul/well and incubated overnight at 37° C., 5% CO2. The next day, media was removed and cells were pre-incubated in PBS with α-NETA or test compound (95 ul/well) in a 6 point dose response curve from 100 μM to 0.3 μM for 10 min at RT. (α-NETA and test compounds were reconstituted in DMSO; final DMSO concentration in each well was 0.1%). After 10 min, 5 ul of recombinant human chemerin (R&D Systems) at a final concentration of 20 nM was added to each well. Plates were incubated for 90 min at 37° C., 5% CO2. Media was then removed and 50 ul of chemiluminescent substrate (Tropix Gal-Screen, Applied Biosciences) was added. The plate was incubated for 1 hr at RT and luminescence was detected using the SpectraMax M5 plate reader (Molecular Devices). For each independent trial (single replicate dose curves), data was normalized to the maximum signal per compound tested and an IC50 value was generated using GraphPad Prism software. The average IC50 value for n independent trials (as specified in the table) is reported.

EAE in C57BL/6 mice = assay: EAE induced by MOG35-55/CFA immunization; assay type: in vivo, mouse; conditions: Table 4, 10 mg/kg daily to D 21, n = 8; for Maximum Score (Mean ± SEM): clinical score 0-5; for AUC (Mean ± SEM): mean clinical score × day
Protocol: FIG. 1A-1D. […] (FIG. 1D) The integrated clinical score over time for each animal was calculated as area under the curve (AUC).
EAE. […] CFA consisted of 5 mg/ml mTB (Mycobacterium-tuberculosis H37 Ra, BD Difco) in IFA (Incomplete Freund's Adjuvant, Sigma). MOG35-55 was reconstituted at 2 mg/ml in PBS. Mice also received 200 ng pertussis toxin (List Biological Laboratories, Inc) by i.p. injection at the time of immunization and two days later. […] For a direct comparison to α-NETA, the DMF and compound doses were also 10 mg/kg in 10% captisol. Mice were monitored daily for clinical disease and scored (0=normal/healthy, 1=limp tail, 2=hindlimb weakness, 3=hindlimb paralysis, 4=hindlimb and forelimb paralysis, 5=moribund/dead).

[1] = test system: IMQ-induced psoriasis in mice; assay: IMQ-induced psoriasis model; assay type: in vivo, mouse; conditions: for clinical features of experimental psoriasis: oral gavage in 10% captisol, FIG. 15D
Protocol: FIG. 11A-11G. […] Representative images of the same mouse shown over time. […] Mice were treated twice daily with IMQ±dexamethasone (DEX, 200 ug/mouse) 1 h prior to IMQ treatment. […] (FIG. 11G) NK cell (CD45+DX5+CD11b-CD3-CD19-) infiltration into lesional or non-lesional adjacent skin was determined by flow cytometry (6 day timepoint) for IMQ-treated WT and chemerin KO mice. mean±SEM, n=4 mice per genotype, ***p<0.005 by 2-tailed t-test; **p<0.01 by 2-tailed t-test; *p<0.05 by 1-tailed t-test.
FIG. 13A-13D. […] Fold change with respect to day 0 measurements are shown. […] For A-C, n=3 untreated, n=5 IMQ-treated mice of each genotype, mean±SEM, *p<0.05 by 2-tailed t-test.
as §1

(hu)CMKLR1 L1.2 cells = target: T2, (hu)CMKLR1 L1.2 cells (Homo sapiens, UniProt Q99788); assay: Chemotaxis assay (chemerin-dependent CMKLR1+ cell migration); assay type: cell-based; conditions: for IC50: Table 3, migration toward huChemerin, 2 h transwell, read-out: Chemotaxis IC50 μM mean ± SEM (n)
T2 construct: expressed in transfected cells; host or cells: L1.2 pre-B cell lymphoma cells
T2 sequence (Q99788 1-373): T1 sequence (Q99788 1-373)
Protocol: Cell culture. (hu)CMKLR1 transfectants (generated in L1.2 pre-B cell lymphoma cells) were grown in RPMI 1640 (Corning) supplemented with L-glutamine, penicillin-streptomycin, and 10% BCS and G418-sulfate (KSE Scientific). DiscoverX PathHunter® CHO-K1 CMKLR1 β-Arrestin Cells were grown in RPMI lacking phenol red (Gibco, Life Technologies), supplemented with L-glutamine, penicillin-streptomycin, sodium pyruvate, non-essential amino acid, BCS, hygromycin, and G418-sulfate.
Chemotaxis assay. (hu)CMKLR1 L1.2 cells at 1×10^6 cell/ml were treated with 5 mM sodium butyrate (Sigma) overnight to induce hCMKLR1 expression. The next day, cells were washed in migration media (RPMI+0.5% BSA) and resuspended at 1.5-3×10^6 cell/ml. Cells were pre-incubated at RT for 10 min with various concentrations of α-NETA or test compounds (α-NETA and test compounds were reconstituted in DMSO; final DMSO concentration in each well was 0.1%). 100 ul of cells were added to the upper chamber of a 24-well transwell plate (5 um pore size, Costar). Cells were allowed to migrate toward huChemerin ([…] in migration media, bottom chamber) for 2 h, 37° C., 5% CO2. The number of migrated cells was quantified by flow cytometry (BD LSR2), and live cells were distinguished based on FSC×SSC properties. The background for this assay was typically low with 0 cells migrating to the buffer alone. For each independent trial, data was normalized to the maximum migration per compound tested and an IC50 value was generated using GraphPad Prism software. The average IC50 value for n independent trials (as specified in the table) is reported.

[2] = Table 2, tertiary amines, chemerin 20 nM, CHO transfectants, read-out: β-arrestin IC50 μM mean ± SEM (n)
[3] = Table 3, quaternary ammonium salts, chemerin 20 nM, CHO transfectants, read-out: β-arrestin IC50 μM mean ± SEM (n)
[4] = values given in running text b220, read-out: β-arrestin2 assay IC50

IC50 (CMKLR1; [2]) [µM]	IC50 (CMKLR1; [3]) [µM]	IC50 ((hu)CMKLR1 L1.2 cells) [µM]	SMILES	other results
18.8			CN(C)CCC(=O)c1cccc2ccccc12 [Compound 3]	
17.9			CCN(C)CCC(=O)c1cccc2ccccc12 [Compound 4]	
8.9 ± 2.4			CCN(CC)CCC(=O)c1cccc2ccccc12 [Compound 5]	
6.2 ± 2.5			COc1ccc2ccccc2c1C(=O)CCN(C)C [Compound 6]	Maximum Score (Mean ± SEM) (EAE in C57BL/6 mice): 2.4 ± 0.2; AUC (Mean ± SEM) (EAE in C57BL/6 mice): 25.2 ± 4.0; Day of onset (Mean ± SEM) (EAE in C57BL/6 mice): 14.5 ± 0.4; clinical features of experimental psoriasis [1]: suppressed
18.5			CN(C)CCC(=O)c1ccc2ccccc2c1 [Compound 7]	
71.3			CCN(CC)CCC(=O)c1ccc2ccccc2c1 [Compound 8]	
39.6			CCN(C)CCC(=O)c1ccc2ccccc2c1 [Compound 9]	
44.5			CCCCN(C)CCC(=O)c1ccc2ccccc2c1 [Compound 10]	
> 100			COc1ccc2cc(C(=O)CCN(C)C)ccc2c1 [Compound 11]	
16.8 ± 8.3			CCN(C)CCC(=O)c1ccccc1 [Compound 13]	
77.8			CCN(CC)CCC(=O)c1ccccc1 [Compound 14]	
> 100			CCCCN(C)CCC(=O)c1ccccc1 [Compound 15]	
> 100			COc1ccccc1C(=O)CCN(C)C [Compound 16]	
> 100			COc1ccc(C(=O)CCN(C)C)cc1 [Compound 17]	
64			COc1cccc(C(=O)CCN(C)C)c1 [Compound 18]	
10.3 ± 4.5			COc1cccc(OC)c1C(=O)CCN(C)C [Compound 19]	
> 100			CN(C)CCC(=O)C1CCCCC1 [Compound 20]	activity in β-arrestin2 assay (CMKLR1): complete loss of activity
	2.5 ± 0.9	24.1	C[N+](C)(C)CCC(=O)c1ccc2ccccc2c1 [Compound 23]	IC50 (CMKLR1; [4]): 3.1 µM
	5.6 ± 0.7	> 100	C[N+](C)(C)CCC(=O)c1ccccc1 [Compound 24]	activity in β-arrestin2 assay (CMKLR1): showed activity; IC50 (CMKLR1; [4]): 4.3 µM; activity in chemotaxis assay ((hu)CMKLR1 L1.2 cells): did not show any activity
		> 100	C[N+](C)(C)CCC(=O)C1CCCCC1 [Compound 25]	IC50 (CMKLR1; [4]): 11.9 µM
	2.9 ± 1.6	7.2	COc1ccccc1C(=O)CC[N+](C)(C)C [Compound 26]	activity in β-arrestin2 assay (CMKLR1): highly active; activity in chemotaxis assay ((hu)CMKLR1 L1.2 cells): highly active
	1.9 ± 0.2	4.5 ± 1.5	COc1ccc(C(=O)CC[N+](C)(C)C)cc1 [Compound 27]	activity in β-arrestin2 assay (CMKLR1): highly active; activity in chemotaxis assay ((hu)CMKLR1 L1.2 cells): highly active; Maximum Score (Mean ± SEM) (EAE in C57BL/6 mice): 2.1 ± 0.1¶; AUC (Mean ± SEM) (EAE in C57BL/6 mice): 24.3 ± 4.2; Day of onset (Mean ± SEM) (EAE in C57BL/6 mice): 16.0 ± 0.9; clinical features of experimental psoriasis [1]: suppressed
	3.8 ± 1.7	14.6 ± 4.8	COc1cccc(C(=O)CC[N+](C)(C)C)c1 [Compound 28]	
	4.8 ± 1.6	17.4 ± 2.2	COc1ccc(C(=O)CC[N+](C)(C)C)c(OC)c1 [Compound 29]	
	2.1 ± 1.1	6.8	COc1cccc(OC)c1C(=O)CC[N+](C)(C)C.[I-] [Compound 30]	activity in β-arrestin2 assay (CMKLR1): highly active; activity in chemotaxis assay ((hu)CMKLR1 L1.2 cells): highly active
	6 ± 2.2	> 100	COc1cc(OC)cc(C(=O)CC[N+](C)(C)C)c1 [Compound 31]	
	1.5 ± 0.3	20 ± 6.2	COc1ccc2cc(C(=O)CC[N+](C)(C)C)ccc2c1 [Compound 32]	
	0.6 ± 0.3	10.7	COc1ccc2ccccc2c1C(=O)CC[N+](C)(C)C [Compound 33]	
			C[N+](C)(C)CCS(=O)(=O)c1ccccc1.[I-] [Compound 35]	activity in β-arrestin2 assay (CMKLR1): inactive
			C[C@@H]1C[C@H]2[C@@H]3CCC4=CC(=O)C=C[C@]4(C)[C@@]3(F)[C@@H](O)C[C@]2(C)[C@@]1(O)C(=O)CO [dexamethasone, reference compound]	percent inhibition of skin thickening ([1]; day 5 post-IMQ, 200 ug/mouse 1 h prior to IMQ): 62±6%

SMILES	IC50 (CMKLR1; [2]) [µM]	IC50 (CMKLR1; [3]) [µM]	IC50 ((hu)CMKLR1 L1.2 cells) [µM]	other results
CN(C)CCC(=O)c1ccccc1 [Compound 12]	> 100			
